Test results from ChEMBL document CHEMBL4393720, “Design, synthesis and biological evaluation of bromophenol-thiazolylhydrazone hybrids inhibiting the interaction of translation initiation factors eIF4E/eIF4G as multifunctional agents for cancer treatment” (Eur J Med Chem, 2019).
Active and inactive are the calls of the source. The rule behind the calls is not given here.

Assays:
[1] = MRT in male Sprague-Dawley rat at 10 mg/kg, po measured up to 24 hrs by LC/MS-MS analysis; type: ADME, organism-based; conditions: in vivo
[2] = Tmax in male Sprague-Dawley rat at 2 mg/kg, iv measured up to 24 hrs by LC/MS-MS analysis; type: ADME, organism-based; conditions: in vivo
[3] = Subacute toxicity in SPF Kunming mouse assessed as body weight at 2000 mg/kg, po administered once a day for 14 days (reference value: 32g); type: organism-based; conditions: in vivo, 336 h
[4] = MRT in female Sprague-Dawley rat at 10 mg/kg, po measured up to 24 hrs by LC/MS-MS analysis; type: ADME, organism-based; conditions: in vivo
[5] = system: A549; test: Induction of apoptosis in human A549 cells assessed as decrease in Bcl2 level at 1 to 5 uM incubated for 48 hrs by Western blot analysis; type: functional, cell-based
[6] = AUC (0 to 24 hrs) in female Sprague-Dawley rat at 10 mg/kg, po measured up to 24 hrs by LC/MS-MS analysis; type: ADME, organism-based; design: time < 24 hr, dose 10 mg/kg, route oral; conditions: in vivo
[7] = system: A549; test: Induction of autophagy in human A549 cells assessed as change in […] expression at 1 to 5 uM incubated for 48 hrs by Western blot analysis; type: functional, cell-based
[8] = Half life in female Sprague-Dawley rat at 10 mg/kg, po measured up to 24 hrs by LC/MS-MS analysis; type: ADME, organism-based; conditions: in vivo
[9] = system: A549; test: Antiproliferative activity against human A549 cells assessed as inhibition of cell growth incubated for 48 hrs by MTT assay; type: functional, cell-based; conditions: A549, 48 h
[10] = MRT in male Sprague-Dawley rat at 2 mg/kg, iv measured up to 24 hrs by LC/MS-MS analysis; type: ADME, organism-based; conditions: in vivo
[11] = Total plasma clearance in female Sprague-Dawley rat at 2 mg/kg, iv measured up to 24 hrs by LC/MS-MS analysis; type: ADME, organism-based
[12] = Total plasma clearance in male Sprague-Dawley rat at 2 mg/kg, iv measured up to 24 hrs by LC/MS-MS analysis; type: ADME, organism-based
[13] = system: A549; test: Induction of apoptosis in human A549 cells assessed as increase in Bax level at 1 to 5 uM incubated for 48 hrs by Western blot analysis; type: functional, cell-based
[14] = Cmax in female Sprague-Dawley rat at 2 mg/kg, iv measured up to 24 hrs by LC/MS-MS analysis; type: ADME, organism-based; design: dose 2 mg/kg, route intravenous; conditions: in vivo
[15] = system: A549; test: Inhibition of eIF4E/eIF4G interaction in human A549 cells at 2.5 uM incubated for 24 hrs by proximity ligation assay; type: cell-based
[16] = Volume of distribution in steady state in female Sprague-Dawley rat at 2 mg/kg, iv measured up to 24 hrs by LC/MS-MS analysis; type: ADME, organism-based; conditions: in vivo, read-out: Vdss
[17] = Oral bioavailability in female Sprague-Dawley rat at 10 mg/kg measured up to 24 hrs by LC/MS-MS analysis; type: ADME, organism-based; conditions: in vivo
[18] = Inhibition of PI3K/Akt/mTOR signalling pathway in human A549 cells assessed as reduction in mTOR phosphorylation at 1 to 5 uM incubated for 48 hrs by Western blot analysis; type: cell-based
[19] = system: A549; test: Decrease in phosphorylation of Ki67 in human A549 cells xenografted in athymic nude mouse at 25 to 50 mg/kg, ip administered once daily for 21 days by immunocytochemistry; type: functional, organism-based
[20] = Cmax in male Sprague-Dawley rat at 2 mg/kg, iv measured up to 24 hrs by LC/MS-MS analysis; type: ADME, organism-based; design: dose 2 mg/kg, route intravenous; conditions: in vivo
[21] = system: Caco-2; test: Antiproliferative activity against human Caco2 cells assessed as inhibition of cell growth incubated for 48 hrs by MTT assay; type: functional, cell-based; conditions: Caco-2, 48 h
[22] = target: Eukaryotic translation initiation factor 4E (Homo sapiens) (UniProt P06730); test: Inhibition of eIF4E phosphorylation in human A549 cells incubated for 48 hrs by immunofluorescence method; type: cell-based
Eukaryotic translation initiation factor 4E (Homo sapiens), sequence (P06730 whole entry): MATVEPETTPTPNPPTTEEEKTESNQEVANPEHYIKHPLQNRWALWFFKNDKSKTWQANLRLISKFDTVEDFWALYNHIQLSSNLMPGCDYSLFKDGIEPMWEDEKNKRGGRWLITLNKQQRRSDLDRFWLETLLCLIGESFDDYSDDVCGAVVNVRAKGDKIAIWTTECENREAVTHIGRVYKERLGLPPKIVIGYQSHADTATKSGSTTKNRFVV

[23] = Half life in male Sprague-Dawley rat at 2 mg/kg, iv measured up to 24 hrs by LC/MS-MS analysis; type: ADME, organism-based; conditions: in vivo
[24] = Inhibition of PI3K/AKT/mTOR in human A549 cells assessed as decrease in 4EBP1 phosphorylation at 1 to 5 uM incubated for 48 hrs by western blot analysis; type: cell-based
[25] = system: A549; test: Induction of mitochondrial membrane potential loss in human A549 cells at 1 to 5 uM incubated for 48 hrs by JC-1 staining based flow cytometer analysis; type: functional, cell-based
[26] = system: A549; test: Induction of apoptosis in human A549 cells assessed as nuclear shrinkage and chromatin condensation at 1 to 5 uM incubated for 48 hrs by Hoechst 33258 staining based fluorescence microscopy; type: functional, cell-based
[27] = system: A549; test: Induction of ROS generation in human A549 cells at 1 to 5 uM incubated for 48 hrs by DCFH-DA staining based FACS analysis; type: functional, cell-based
[28] = Toxicity in athymic nude mouse xenografted with human A549 cells assessed as effect on liver morphological changes at 25 to 50 mg/kg, ip administered once daily for 21 days by H and E staining based assay; type: organism-based; conditions: in vivo, 504 h
[29] = Half life in male Sprague-Dawley rat at 10 mg/kg, po measured up to 24 hrs by LC/MS-MS analysis; type: ADME, organism-based; conditions: in vivo
[30] = system: A549; test: In vivo inhibition of PI3K/Akt/mTOR in human A549 cells xenografted in athymic nude mouse assessed as decrease in phosphorylation of 4EBP1 at 25 to 50 mg/kg, ip administered once daily for 21 days by Western blot analysis; type: functional, organism-based
[31] = Acute toxicity in SPF Kunming mouse assessed as body weight at 1000 mg/kg, po administered as single dose measured at day 7 (reference value: 30.2g); type: organism-based; conditions: in vivo
[32] = AUC (0 to 24 hrs) in male Sprague-Dawley rat at 10 mg/kg, po measured up to 24 hrs by LC/MS-MS analysis; type: ADME, organism-based; design: time < 24 hr, dose 10 mg/kg, route oral; conditions: in vivo
[33] = Tmax in female Sprague-Dawley rat at 2 mg/kg, iv measured up to 24 hrs by LC/MS-MS analysis; type: ADME, organism-based; conditions: in vivo
[34] = Toxicity in athymic nude mouse xenografted with human A549 cells assessed as changes in body weight at 25 to 50 mg/kg, ip administered once daily for 21 days; type: organism-based; conditions: in vivo, 504 h
[35] = MRT in female Sprague-Dawley rat at 2 mg/kg, iv measured up to 24 hrs by LC/MS-MS analysis; type: ADME, organism-based; conditions: in vivo
[36] = AUC (0 to 24 hrs) in male Sprague-Dawley rat at 2 mg/kg, iv measured up to 24 hrs by LC/MS-MS analysis; type: ADME, organism-based; design: dose 2 mg/kg, time < 24 hr, route intravenous; conditions: in vivo
[37] = Acute toxicity in SPF Kunming mouse assessed as mortality at 500 to 2000 mg/kg, po administered as single dose measured for 14 days; type: organism-based; conditions: in vivo, 336 h
[38] = Cmax in male Sprague-Dawley rat at 10 mg/kg, po measured up to 24 hrs by LC/MS-MS analysis; type: ADME, organism-based; design: dose 10 mg/kg, route oral; conditions: in vivo
[39] = Volume of distribution in Sprague-Dawley rat at 2 mg/kg, iv measured up to 24 hrs by LC/MS-MS analysis; type: ADME, organism-based; conditions: in vivo
[40] = Oral bioavailability in male Sprague-Dawley rat at 10 mg/kg measured up to 24 hrs by LC/MS-MS analysis; type: ADME, organism-based; conditions: in vivo

Fc1ccc(/C=N/Nc2nc(-c3ccc(C(F)(F)F)cc3)cs2)cc1F
MRT [1]: 1.83 h
Tmax [2]: 2 h
Activity [3]: 30.7 g
MRT [4]: 1.62 h
Activity [5]: Active
AUC(0-t) at 24 h [6]: 8.25 µM·h
Activity [7]: Active
half-life [8]: 1.12 h
IC50 [9]: 2.61 µM
MRT [10]: 4.42 h
clearance [11]: 0.667 mL/min/kg
clearance [12]: 0.5 mL/min/kg
Activity [13]: Active
Cmax [14]: 126 µM
inhibition [15]: Active
Vd [16]: 0.19 L/kg
bioavailability [17]: 31%
inhibition [18]: Active
inhibition [19]: Active
Cmax [20]: 149 µM
IC50 [21]: 14.6 µM
inhibition [22]: Active
half-life [23]: 2.83 h
inhibition [24]: Active
Activity [25]: Active
Activity [26]: Active
Activity [27]: Active
Activity [28]: Non-Toxic
half-life [29]: 1.27 h
inhibition [30]: Active
Activity [31]: 30.5 g
AUC(0-t) at 24 h [32]: 5.34 µM·h
Tmax [33]: 2 h
Activity [34]: Non-Toxic
MRT [35]: 5.09 h
AUC(0-t) at 24 h [36]: 155 µM·h
Activity [37]: Non-Toxic
Cmax [38]: 0.65 µM
Vd [39]: 0.67 L/kg
bioavailability [40]: 17.2%
